In patent US8410157B2, “Fungicidal N-cycloalkyl-benzyl-thiocarboxamides or N-cycloalkyl-benzyl-N′-substituted-amidine derivatives” (Bayer Cropscience AG, priority 2007, dated 2013) one finds LogP data, which are given here for 42 molecules.

The data set in a line: LogP (Table 1). It is filed as physicochemical.

For the molecule `Cn1cc(C(=S)N(Cc2c(Cl)cc(OC(F)(F)F)cc2Cl)C2CC2)c(C(F)(F)F)n1` [Compound 45], the LogP turned out to be 4.9.

For `Cn1nc(C(=S)N(Cc2c(Cl)cccc2C(F)(F)F)C2CC2)c(C(F)(F)F)n1` [Compound 46], the LogP worked out at 4.67.

The molecule `Cn1cc(C(=S)N(Cc2c(Cl)cccc2C(F)(F)F)C2CC2)c(C(F)F)n1` [Compound 34] had a LogP of 3.71.

`Cc1nn(C)c(F)c1C(=S)N(Cc1c(Cl)cc(Cl)cc1Cl)C1CC1` [Compound 6] yielded a LogP of 4.42.

In turn, `Cc1nn(C)c(F)c1C(=S)N(C1CC1)C(C)c1ccc(Cl)cc1Cl` (racemic) [Compound 15] registered a LogP of 4.14.

On to `Cc1nn(C)c(F)c1C(=S)N(Cc1ccc(C(F)(F)F)cc1Cl)C1CC1` [Compound 8], for which the lipophilicity (LogP) is recorded as 4.14.

The molecule `CCCc1nn(C)cc1C(=S)N(C1CC1)C(C)c1ccc(Cl)cc1Cl` (racemic) [Compound 56] gave a log partition coefficient (LogP) of 4.39.

Molecule `Cc1oc(C(C)(C)C)cc1C(=S)N(Cc1ccccc1I)C1CC1` [Compound 54] came in with a LogP of 5.95.

In the case of `Cc1nn(C)c(F)c1C(=S)N(C1CC1)C(C)c1cccc(OCc2ccccc2)c1` (racemic) [Compound 17], the LogP worked out at 4.36.

`Cn1cc(C(=S)N(Cc2cc(Cl)ccc2C(F)(F)F)C2CC2)c(C(F)F)n1` [Compound 36] registered a LogP of 4.01.

For the molecule `Cn1cc(C(=S)N(Cc2ccc(C(F)(F)F)cc2Cl)C2CC2)c(C(F)F)n1` [Compound 35], the LogP is recorded as 4.09.

Turning to `Cn1cc(C(=S)N(Cc2c(Cl)cccc2Cl)C2CC2)c(I)n1` [Compound 55], the LogP turned out to be 3.71.

Molecule `Cn1cc(C(=S)N(Cc2c(Cl)cccc2C(F)(F)F)C2CC2)c(Cl)n1` [Compound 50] returned a log partition coefficient (LogP) of 3.83.

On to `Cc1nn(C)c(F)c1C(=S)N(Cc1ccc(-c2ccc(F)c(Cl)c2)cc1F)C1CC1` [Compound 2], for which the lipophilicity (LogP) is on record as 4.73.

Regarding `Cn1cc(C(=S)N(Cc2ccccc2[Si](C)(C)C)C2CC2)c(C(F)F)n1` [Compound 37], the log partition coefficient (LogP) was 4.49.

In turn, `CC(c1cc(Cl)cc(Cl)c1)N(C(=S)c1cn(C)nc1Cl)C1CC1` (racemic) [Compound 49] showed a lipophilicity (LogP) of 4.49.

`Cc1ccc(C(F)(F)F)c(CN(C(=S)c2c(C)nn(C)c2F)C2CC2)c1` [Compound 16] came in with a log partition coefficient (LogP) of 4.06.

Take `Cn1cc(C(=S)N(Cc2cc(Cl)ccc2Br)C2CC2)c(C(F)F)n1` [Compound 42]: the LogP was 3.89.

Regarding `Cn1nc(C(=S)N(Cc2ccc(Cl)cc2Cl)C2CC2)c(C(F)(F)F)n1` [Compound 48], the lipophilicity (LogP) was 4.95.

In the case of `Cc1nn(C)c(F)c1C(=S)N(Cc1ccc(Oc2ccc(Cl)cc2Cl)cc1)C1CC1` [Compound 18], the LogP stood at 5.

For `Cc1nn(C)c(F)c1C(=S)N(Cc1ccc(Oc2ccccc2)cc1)C1CC1` [Compound 5], the LogP is listed as 4.06.

Take `Cn1cc(C(=S)N(Cc2ccccc2Br)C2CC2)c(C(F)F)n1` [Compound 31]: the log partition coefficient (LogP) is 3.46.

`CCc1cccc(CC)c1CN(C(=S)c1c(C)nn(C)c1F)C1CC1` [Compound 4] registered a lipophilicity (LogP) of 4.39.

The molecule `Cn1nc(C(=S)N(Cc2cc(Cl)ccc2C(F)(F)F)C2CC2)c(C(F)(F)F)n1` [Compound 47] gave a LogP of 4.94.

The molecule `Cc1nn(C)c(F)c1C(=S)N(Cc1ccccc1[Si](C)(C)C)C1CC1` [Compound 7] came in with a LogP of 4.64.

Molecule `Cn1cc(C(=S)N(Cc2cc3c(cc2Cl)OCO3)C2CC2)c(C(F)(F)F)c1` [Compound 44] showed a LogP of 4.01.

For the molecule `Cc1nn(C)c(F)c1C(=S)N(C1CC1)C(C)c1cc(Cl)ccc1Cl` (racemic) [Compound 19], the log partition coefficient (LogP) was 4.04.

In turn, `Cc1nn(C)c(F)c1C(=S)N(Cc1cc(Cl)ccc1Br)C1CC1` [Compound 22] showed a LogP of 3.99.

As for `Cc1nn(C)c(F)c1C(=S)N(Cc1ccccc1C1CCCCC1)C1CC1` [Compound 11], the LogP came to 5.17.

`Cc1nn(C)c(F)c1C(=S)N(Cc1cc(C(F)(F)F)ccc1Cl)C1CC1` [Compound 9] registered a lipophilicity (LogP) of 3.96.

The molecule `Cc1ccc(C(F)(F)F)c(CN(C(=S)c2cn(C)nc2C(F)F)C2CC2)c1` [Compound 32] came in with a log partition coefficient (LogP) of 4.01.

`CCCC(c1ccc(Cl)cc1Cl)N(C(=S)c1c(C)nn(C)c1F)C1CC1` (racemic) [Compound 10] came in with a LogP of 4.97.

The molecule `Cc1nn(C)c(F)c1C(=S)N(Cc1ccccc1I)C1CC1` [Compound 12] displayed a LogP of 3.68.

Molecule `Cn1cc(C(=S)N(Cc2cccc(OCc3ccccc3)c2)C2CC2)c(C(F)F)n1` [Compound 33] showed a LogP of 4.06.

`Cc1nn(C)c(F)c1C(=S)N(Cc1ccc(Oc2ccc(Cl)cc2)cc1)C1CC1` [Compound 1] had a LogP of 4.59.

As for `CCc1nn(C)cc1C(=S)N(Cc1ccccc1I)C1CC1` [Compound 53], the LogP worked out at 3.53.

As for `Cn1cc(C(=S)N(Cc2ccccc2I)C2CC2)c(Cl)n1` [Compound 51], the lipophilicity (LogP) was found to be 3.73.

On to `Cc1nn(C)c(F)c1C(=S)N(Cc1c(Br)cc(Br)cc1Br)C1CC1` [Compound 13], for which the LogP was 4.86.

For the molecule `Cc1nn(C)c(F)c1C(=S)N(Cc1cccc(C(F)(F)F)c1Cl)C1CC1` [Compound 3], the lipophilicity (LogP) came to 3.92.

On to `Cn1cc(C(=S)N(Cc2c(Cl)cc(Cl)cc2Cl)C2CC2)c(Cl)n1` [Compound 52], for which the lipophilicity (LogP) was determined as 4.49.

The molecule `CCc1nn(C)c(F)c1C(=S)N(Cc1ccc(C(F)(F)F)cc1Cl)C1CC1` [Compound 28] registered a LogP of 4.54.

`Cc1nn(C)c(F)c1C(=S)N(Cc1ccccc1C(C)C)C1CC1` [Compound 14]: the LogP stood at 3.89.
